Drawing on patent publication US20170253607A1, “LONG-ACTING HIV PROTEASE INHIBITOR” (Shionogi & Co., Ltd., priority 2014, published 2017), this text covers IC50 for 43 compounds.

The assay has as its target HIV-1 PR (Human immunodeficiency virus type 1 group M subtype B, UniProt P04585). Put plainly: HIV-protease inhibitory activity assay (FRET peptide substrate). It counts as biochemical. The conditions noted are these: Test Example 1. In short, it runs like this: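 Fluorescence recovery at ex 485/em 535 nm reports cleavage of a quenched FRET peptide (2 μmol/L final) by 0.83 ng enzyme over 60 minutes at room temperature. Buffer was NaAc pH 4.8 with NaCl, EDTA, DTT and Tween 20. IC50 values came from four-parameter logistic regression of % inhibition.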
The IC50 is the concentration that gives 50% inhibition. High values mean lower potency, low ones higher potency. The compound `COc1ccc(S(=O)(=O)N(CC(C)C)CC(O)C(Cc2ccc(N(Cc3ccccc3-c3sc4c(c3C(=O)O)CC(C)(C)CC4)CC3CC3)cc2)NC(=O)OC2COC3(C)OCCC23)cc1` (stereo not shown) [Compound I-460] had an IC50 of 3.58 nM. This lies in the single-digit nanomolar range.
With `COc1ccc(S(=O)(=O)N(CC(C)C)CC(O)C(Cc2ccc(N(CCC(C)C)Cc3ccccc3-c3sc4c(c3C(=O)O)CC(C)(C)CC4)cc2)NC(=O)OC2COC3(C)OCCC23)cc1` (stereo not shown) [Compound I-461] the figure was 7.09 nM.
Next, `CCCN(Cc1ccccc1-c1sc2c(c1C(=O)O)CC(C)(C)CC2)c1ccc(CC(NC(=O)OC2COC3(C)OCCC23)C(O)CN(CC(C)C)S(=O)(=O)c2ccc(OC)cc2)cc1` (stereo not shown) [Compound I-462]: 3.33 nM; `COc1ccc(S(=O)(=O)N(CC(C)C)CC(O)C(Cc2ccc(N(Cc3ccccc3-c3sc4c(c3C(=O)O)CC(C)(C)CC4)CC3CCC3)cc2)NC(=O)OC2COC3(C)OCCC23)cc1` (stereo not shown) [Compound I-463]: 5.13 nM; `COc1ccc(S(=O)(=O)N(CC(C)C)CC(O)C(Cc2ccc(N(C)Cc3ccc(OC)c(-c4sc5c(c4C(=O)O)CC(C)(C)CC5)c3)cc2)NC(=O)OC2COC3(C)OCCC23)cc1` (stereo not shown) [Compound I-464]: 2.52 nM.
`COc1ccc(S(=O)(=O)N(CC(C)C)CC(O)C(Cc2ccc(Nc3ccc(-c4sc5c(c4C(=O)O)CC(C)(C)CC5)cc3)cc2)NC(=O)OC2COC3(C)OCCC23)cc1` (stereo not shown) [Compound I-468] registered an IC50 of 5.6 nM.
Next, `COc1ccc(S(=O)(=O)N(CC(C)C)CC(O)C(Cc2ccc(N(C)c3ccc(-c4sc5c(c4C(=O)O)CC(C)(C)CC5)cc3)cc2)NC(=O)OC2COC3(C)OCCC23)cc1` (stereo not shown) [Compound I-469]: 5.16 nM.
`COc1ccc(S(=O)(=O)N(CC(C)C)CC(O)C(Cc2ccc(N(C)CC3CCCC3c3sc4c(c3C(=O)O)CC(C)(C)CC4)cc2)NC(=O)OC2COC3(C)OCCC23)cc1` (stereo not shown) [Compound I-470] gave an IC50 of 2.67 nM.
With `COc1ccc(S(=O)(=O)N(CC2CC2)CC(O)C(Cc2ccc(NCc3ccccc3-c3sc4c(c3C(=O)O)CC(C)(C)CC4)cc2)NC(=O)OC2COC3(C)OCCC23)cc1` (stereo not shown) [Compound I-472] the figure was 2.27 nM.
`CC(C)CN(CC(O)C(Cc1ccc(NCc2ccccc2-c2sc3c(c2C(=O)O)CC(C)(C)CC3)cc1)NC(=O)OC1COC2(C)OCCC12)S(=O)(=O)c1ccc(N)cc1` (stereo not shown) [Compound I-476] gave an IC50 of 1.99 nM.
`COc1ccc(S(=O)(=O)N(CC(C)C)CC(O)C(Cc2ccc(N(C)Cc3ncccc3-c3ccccc3-c3sc4c(c3C(=O)O)CC(C)(C)CC4)cc2)NC(=O)OC2COC3(C)OCCC23)cc1` (stereo not shown) [Compound I-477] yielded an IC50 of 2 nM.
Compound `COc1ccc(S(=O)(=O)N(CC(C)C)CC(O)C(Cc2ccc(Nc3cccc(-c4sc5c(c4C(=O)O)CC(C)(C)CC5)c3)cc2)NC(=O)OC2COC3(C)OCCC23)cc1` (stereo not shown) [Compound I-478] gave an IC50 of 2.25 nM. This IC50 and that of the compound before are within 1.5-fold of each other.
Regarding `COc1ccc(S(=O)(=O)N(CC(C)C)CC(O)C(Cc2ccc(N(C)c3cccc(-c4sc5c(c4C(=O)O)CC(C)(C)CC5)c3)cc2)NC(=O)OC2COC3(C)OCCC23)cc1` (stereo not shown) [Compound I-479], inhibition was half-maximal at 2.49 nM (IC50).
Next, `CC(C)CN(CC(O)C(Cc1ccc(NCc2ccccc2-c2sc3c(c2C(=O)O)CC(C)(C)CC3)cc1)NC(=O)OC1COC2(C)OCCC12)S(=O)(=O)c1ccc2nc(O)sc2c1` (stereo not shown) [Compound I-482]: 2.27 nM; `COc1ccc(S(=O)(=O)N(CC(C)C)CC(O)C(Cc2ccc(N(Cc3ccccn3)Cc3ccccc3-c3sc4c(c3C(=O)O)CC(C)(C)CC4)cc2)NC(=O)OC2COC3(C)OCCC23)cc1` (stereo not shown) [Compound I-486]: 4.59 nM; `COc1ccc(S(=O)(=O)N(CC(C)C)CC(O)C(Cc2ccc(N(C)Cc3ccncc3-c3sc4c(c3C(=O)O)CC(C)(C)CC4)cc2)NC(=O)OC2COC3(C)OCCC23)cc1` (stereo not shown) [Compound I-489]: 1.81 nM.
Regarding `COc1ccc(S(=O)(=O)N(CC(C)C)CC(O)C(Cc2ccc(N(C)Cc3cccc(F)c3-c3sc4c(c3C(=O)O)CC(C)(C)CC4)cc2)NC(=O)OC2COC3(C)OCCC23)cc1` (stereo not shown) [Compound I-493], inhibition was half-maximal at 2.43 nM (IC50).
With `COc1ccc(S(=O)(=O)N(CC(C)C)CC(O)C(Cc2ccc(N(C)Cc3cccc(-c4sc5c(c4C(=O)O)CC(C)(C)CC5)n3)cc2)NC(=O)OC2COC3(C)OCCC23)cc1` (stereo not shown) [Compound I-494] the figure was 1.46 nM; with `COc1ccc(S(=O)(=O)N(CC(C)C)CC(O)C(Cc2ccc(NCc3ccccc3-c3c(C(=O)O)[nH]c4c3CCCC4=O)cc2)NC(=O)OC2COC3(C)OCCC23)cc1` (stereo not shown) [Compound I-495], 1.48 nM.
Compound `COc1ccc(S(=O)(=O)N(CC(C)C)CC(O)C(Cc2ccc(NCc3ccccc3-c3cc4c(cc3C(=O)O)OCCO4)cc2)NC(=O)OC2COC3(C)OCCC23)cc1` (stereo not shown) [Compound I-496] came in with an IC50 of 1.81 nM.
With `COc1ccc(S(=O)(=O)N(CC(C)C)CC(O)C(Cc2ccc(NCc3ccccc3-c3ccccc3C(=O)O)cc2)NC(=O)OC2COC3(C)OCCC23)cc1` (stereo not shown) [Compound I-497] the figure was 1.96 nM; with `COc1ccc(S(=O)(=O)N(CC(C)C)CC(O)C(Cc2ccc(NCc3ccccc3-c3ccsc3C(=O)O)cc2)NC(=O)OC2COC3(C)OCCC23)cc1` (stereo not shown) [Compound I-498], 1.83 nM.
With `COc1ccc(S(=O)(=O)N(CC(C)C)CC(O)C(Cc2ccc(NCc3ccccc3-c3ccc(OC(F)(F)F)cc3C(=O)O)cc2)NC(=O)OC2COC3(C)OCCC23)cc1` (stereo not shown) [Compound I-499] the figure was 1.73 nM; with `COc1ccc(S(=O)(=O)N(CC(C)C)CC(O)C(Cc2ccc(NCc3ccccc3-c3c(C(=O)O)cnc4ccc(OC)cc34)cc2)NC(=O)OC2COC3(C)OCCC23)cc1` (stereo not shown) [Compound I-500], 1.78 nM.
With `COc1ccc(S(=O)(=O)N(CC(C)C)CC(O)C(Cc2ccc(NCc3ccccc3-c3c(C(=O)O)cnc4ccsc34)cc2)NC(=O)OC2COC3(C)OCCC23)cc1` (stereo not shown) [Compound I-501], the IC50 was determined as 1.82 nM.
Next, `COc1ccc(S(=O)(=O)N(CC(C)C)CC(O)C(Cc2ccc(NCc3ccccc3-c3cccc4[nH]c(C(=O)O)cc34)cc2)NC(=O)OC2COC3(C)OCCC23)cc1` (stereo not shown) [Compound I-502]: 1.87 nM; `COc1ccc(S(=O)(=O)N(CC(C)C)CC(O)C(Cc2ccc(NCc3ccccc3-c3ccc4cc(C(=O)O)[nH]c4c3)cc2)NC(=O)OC2COC3(C)OCCC23)cc1` (stereo not shown) [Compound I-503]: 1.68 nM.
With `COc1ccc(S(=O)(=O)N(CC(C)C)CC(O)C(Cc2ccc(NCc3ccccc3-c3c(C(=O)O)cnc4sccc34)cc2)NC(=O)OC2COC3(C)OCCC23)cc1` (stereo not shown) [Compound I-504] the figure was 1.93 nM.
Regarding `COc1ccc(S(=O)(=O)N(CC(C)C)CC(O)C(Cc2ccc(NCc3ccccc3-c3c(C(=O)O)cnc4onc(C)c34)cc2)NC(=O)OC2COC3(C)OCCC23)cc1` (stereo not shown) [Compound I-505], the IC50 is 1.55 nM.
With `COc1ccc(S(=O)(=O)N(CC(C)C)CC(O)C(Cc2ccc(NCc3ccccc3-c3c(C(=O)O)[nH]c4ccc(OC)cc34)cc2)NC(=O)OC2COC3(C)OCCC23)cc1` (stereo not shown) [Compound I-506] the figure was 1.7 nM.
Next, `COc1ccc(S(=O)(=O)N(CC(C)C)CC(O)C(Cc2ccc(N3CC4CC(Oc5ccccc5-c5sc6c(c5C(=O)O)CC(C)(C)CC6)CC4C3)cc2)NC(=O)OC2COC3(C)OCCC23)cc1` (stereo not shown) [Compound I-508]: 8.48 nM.
With `COc1ccc(S(=O)(=O)N(CC(C)C)CC(O)C(Cc2ccc(N(C)Cc3ncccc3-c3cccc(-c4sc5c(c4C(=O)O)CC(C)(C)CC5)c3)cc2)NC(=O)OC2COC3(C)OCCC23)cc1` (stereo not shown) [Compound I-512] the figure was 1.63 nM; with `COc1ccc(S(=O)(=O)N(CC(C)C)CC(O)C(Cc2ccc(NCCn3nc4c(c3C(=O)O)CC(C)(C)CC4)cc2)NC(=O)OC2COC3(C)OCCC23)cc1` (stereo not shown) [Compound I-516], 2.29 nM.
The compound `COc1ccc(S(=O)(=O)N(CC(C)C)CC(O)C(Cc2ccc(N(C)CCn3nc4c(c3C(=O)O)CC(C)(C)CC4)cc2)NC(=O)OC2COC3(C)OCCC23)cc1` (stereo not shown) [Compound I-517] returned an IC50 of 2.56 nM.
Turning to `COc1ccc(S(=O)(=O)N(CC(C)C)CC(O)C(Cc2ccc(NCCOc3ccc(-c4sc5c(c4C(=O)O)CC(C)(C)CC5)c(C)c3)cc2)NC(=O)OC2COC3(C)OCCC23)cc1` (stereo not shown) [Compound I-518], the IC50 was 5.63 nM.
As to `COc1ccc(S(=O)(=O)N(CC(C)C)CC(O)C(Cc2ccc(-n3cccc3)cc2)NC(=O)OC2COC3(C)OCCC23)cc1` (stereo not shown) [Compound I-521], it took 2.84 nM to reach half-maximal inhibition (IC50).
For `COc1ccc(S(=O)(=O)N(CC(C)C)CC(O)C(Cc2ccc(N3CCC(c4ccccc4-c4sc5c(c4C(=O)O)CC(C)(C)CC5)C3)cc2)NC(=O)OC2COC3(C)OCCC23)cc1` (stereo not shown) [Compound I-523], the IC50 was found to be 9.44 nM.
With `COc1ccc(S(=O)(=O)N(CC(C)C)CC(O)C(Cc2ccc(NCC3=C(c4sc5c(c4C(=O)O)CC(C)(C)CC5)COC3)cc2)NC(=O)OC2COC3(C)OCCC23)cc1` (stereo not shown) [Compound I-527] the figure was 1.99 nM; with `COc1ccc(S(=O)(=O)N(CC(C)C)CC(O)C(Cc2ccc(NCc3cccc(-c4ccccc4)c3-c3sc4c(c3C(=O)O)CC(C)(C)CC4)cc2)NC(=O)OC2COC3(C)OCCC23)cc1` (stereo not shown) [Compound I-529], 4.98 nM.
`COc1ccc(S(=O)(=O)N(CC(C)C)CC(O)C(Cc2ccc(NCc3cc(C)c(-c4sc5c(c4C(=O)O)CC(C)(C)CC5)c(C)c3)cc2)NC(=O)OC2COC3(C)OCCC23)cc1` (stereo not shown) [Compound I-533] registered an IC50 of 10.6 nM.
On to `COc1ccc(S(=O)(=O)N(CC(C)C)CC(O)C(Cc2ccc(NCc3ccc(-c4sc5c(c4C(=O)O)CC(C)(C)CC5)c(C)c3)cc2)NC(=O)OC2COC3(C)OCCC23)cc1` (stereo not shown) [Compound I-534], for which it took 4.11 nM to reach half-maximal inhibition (IC50).
As to `COc1ccc(S(=O)(=O)N(CC(C)C)CC(O)C(Cc2ccc(NCc3c(C)c(C)c(-c4sc5c(c4C(=O)O)CC(C)(C)CC5)c(C)c3C)cc2)NC(=O)OC2COC3(C)OCCC23)cc1` (stereo not shown) [Compound I-535], half-maximal inhibition (IC50) required 43.1 nM.
`COc1ccc(S(=O)(=O)N(CC(C)C)CC(O)C(Cc2ccc(NC3c4ccccc4C(=O)N3c3sc4c(c3C(=O)O)CC(C)(C)CC4)cc2)NC(=O)OC2COC3(C)OCCC23)cc1` (stereo not shown) [Compound I-536] showed an IC50 of 2.1 nM.
